# Measured values as given in paper PMC6151695, “Novel Selective Estrogen Receptor Ligand Conjugates Incorporating Endoxifen-Combretastatin and Cyclofenil-Combretastatin Hybrid Scaffolds: Synthesis and Biochemical Evaluation” (Molecules : A Journal of Synthetic Chemistry and Natural …, 2017).
# Marks after values point to notes of the source that are not given here.
# Key:
# [1] = target: T1, human ERβ (Homo sapiens, UniProt Q92731); assay: Estrogen receptor fluorescence polarisation competitive binding assay, ERβ; conditions: competitive binding, fluorescence polarisation; read-out: ERβ IC50
# T1 construct: purchased Invitrogen
# [2] = test system: CCRF-CEM; assay: NCI60 in vitro screen, Leukemia; assay type: cell-based, human
# [3] = test system: MOLT-4; assay: NCI60 in vitro screen, Leukemia; assay type: cell-based, human
# [4] = test system: RPMI-8226; assay: NCI60 in vitro screen, Leukemia; assay type: cell-based, human
# [5] = test system: HOP-62; assay: NCI60 in vitro screen, Non-Small Cell Lung Cancer; assay type: cell-based, human
# [6] = test system: NCI-H226; assay: NCI60 in vitro screen, Non-Small Cell Lung Cancer; assay type: cell-based, human
# [7] = test system: NCI-H332M; assay: NCI60 in vitro screen, Non-Small Cell Lung Cancer; assay type: cell-based, human
# [8] = test system: NCI-H552; assay: NCI60 in vitro screen, Non-Small Cell Lung Cancer; assay type: cell-based, human
# [9] = test system: COLO 205; assay: NCI60 in vitro screen, Colon Cancer; assay type: cell-based, human
# [10] = test system: HCT-2998; assay: NCI60 in vitro screen, Colon Cancer; assay type: cell-based, human
# [11] = test system: HCT-15; assay: NCI60 in vitro screen, Colon Cancer; assay type: cell-based, human
# [12] = test system: KM12; assay: NCI60 in vitro screen, Colon Cancer; assay type: cell-based, human
# [13] = test system: SF-268; assay: NCI60 in vitro screen, CNS Cancer; assay type: cell-based, human
# [14] = test system: SF539; assay: NCI60 in vitro screen, CNS Cancer; assay type: cell-based, human
# [15] = test system: SNB-19; assay: NCI60 in vitro screen, CNS Cancer; assay type: cell-based, human
# [16] = test system: SNB-75; assay: NCI60 in vitro screen, CNS Cancer; assay type: cell-based, human
# [17] = test system: U251; assay: NCI60 in vitro screen, CNS Cancer; assay type: cell-based, human
# [18] = test system: PC-3; assay: NCI60 in vitro screen, Prostate cancer; assay type: cell-based, human
# [19] = test system: DU-145; assay: NCI60 in vitro screen, Prostate cancer; assay type: cell-based, human
# [20] = test system: LOX IMV1; assay: NCI60 in vitro screen, Melanoma; assay type: cell-based, human
# [21] = test system: M14; assay: NCI60 in vitro screen, Melanoma; assay type: cell-based, human
# [22] = test system: MDA-MB-435; assay: NCI60 in vitro screen, Melanoma; assay type: cell-based, human
# [23] = test system: SK-MEL-2; assay: NCI60 in vitro screen, Melanoma; assay type: cell-based, human
# [24] = test system: SK-MEL-28; assay: NCI60 in vitro screen, Melanoma; assay type: cell-based, human
# [25] = test system: SK-MEL-5; assay: NCI60 in vitro screen, Melanoma; assay type: cell-based, human
# [26] = test system: UACC-62; assay: NCI60 in vitro screen, Melanoma; assay type: cell-based, human
# [27] = test system: OVCAR-4; assay: NCI60 in vitro screen, Ovarian cancer; assay type: cell-based, human
# [28] = test system: OVCAR-8; assay: NCI60 in vitro screen, Ovarian cancer; assay type: cell-based, human
# [29] = test system: NCI/ADR-RES; assay: NCI60 in vitro screen, Ovarian cancer; assay type: cell-based, human
# [30] = test system: ACHN; assay: NCI60 in vitro screen, Renal cancer; assay type: cell-based, human
# [31] = test system: CAKI-1; assay: NCI60 in vitro screen, Renal cancer; assay type: cell-based, human
# [32] = test system: RXF 393; assay: NCI60 in vitro screen, Renal cancer; assay type: cell-based, human
# [33] = test system: UO-31; assay: NCI60 in vitro screen, Renal cancer; assay type: cell-based, human
# [34] = test system: BT-549; assay: NCI60 in vitro screen, Breast cancer; assay type: cell-based, human
# [35] = test system: T-47D; assay: NCI60 in vitro screen, Breast cancer; assay type: cell-based, human
# [36] = test system: MCF-7 cells; conditions: human
# [37] = test system: MCF-7; assay: cells; conditions: Homo sapiens
# [38] = in vitro; conditions: human
# T1 sequence (Q92731 whole entry): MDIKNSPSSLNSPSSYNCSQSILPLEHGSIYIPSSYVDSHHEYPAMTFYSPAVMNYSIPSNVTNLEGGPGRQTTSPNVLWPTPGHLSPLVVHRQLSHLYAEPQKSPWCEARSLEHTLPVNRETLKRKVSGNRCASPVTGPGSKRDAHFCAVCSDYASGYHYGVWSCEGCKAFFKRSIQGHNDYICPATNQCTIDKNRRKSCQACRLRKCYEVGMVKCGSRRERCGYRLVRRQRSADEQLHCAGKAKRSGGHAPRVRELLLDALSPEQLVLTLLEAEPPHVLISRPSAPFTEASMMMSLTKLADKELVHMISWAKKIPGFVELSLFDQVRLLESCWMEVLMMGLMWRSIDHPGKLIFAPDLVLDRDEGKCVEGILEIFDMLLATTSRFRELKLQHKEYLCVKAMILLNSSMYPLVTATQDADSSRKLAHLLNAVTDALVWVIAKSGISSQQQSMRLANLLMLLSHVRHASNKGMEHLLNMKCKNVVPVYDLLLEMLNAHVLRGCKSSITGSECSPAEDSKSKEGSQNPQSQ
compound,measurement,setting,value
"CC/C(=C(\c1ccccc1)c1ccc(OCCN(C)C(=O)CCC(=O)Oc2cc(/C=C\c3cc(OC)c(OC)c(OC)c3)ccc2OC)cc1)c1ccccc1 (mixture of isomers) [Compound 16a, N-{2-[4-((Z)-1,2-Diphenylbut-1-enyl)phenoxy]ethyl}-N-methylsuccinamic acid 2-methoxy-5-[(Z)-2-(3,4,5-trimethoxyphenyl)vinyl]phenyl ester]",IC50,[1],22.7 nM
same,Growth % (10^−5 M),[2]; 10 μM,20.38%
same,GI50,[2]; Homo sapiens,39.4 nM
same,GI50,"[3]; Homo sapiens, MOLT-4",39.8 nM
same,Growth % (10^−5 M),"[3]; MOLT-4, 10 μM",36.2%
same,GI50,"[4]; Homo sapiens, RPMI-8226",27.1 nM
same,Growth % (10^−5 M),"[4]; RPMI-8226, 10 μM",−18.51 ^e %
same,Growth % (10^−5 M),"[5]; HOP-62, 10 μM",35.29%
same,GI50,"[5]; Homo sapiens, HOP-62",49.2 nM
same,GI50,"[6]; Homo sapiens, NCI-H226",47.1 nM
same,Growth % (10^−5 M),"[6]; NCI-H226, 10 μM",11.59%
same,Growth % (10^−5 M),[7]; 10 μM,57.18%
same,GI50,[7]; Homo sapiens,67.2 nM
same,GI50,"[8]; Homo sapiens, NCI-H552",19.7 nM
same,Growth % (10^−5 M),"[8]; NCI-H552, 10 μM",−30.85 ^e %
same,Growth % (10^−5 M),"[9]; COLO 205, 10 μM",−55 ^e %
same,GI50,"[9]; Homo sapiens, COLO 205",378 nM
same,Growth % (10^−5 M),"[10]; HCT-2998, 10 μM",4.72%
same,inhibition at 10 µM,"[10]; Homo sapiens, HCC-2998, one-dose, 10 μM, read-out: growth inhibition",95%
same,GI50,"[10]; Homo sapiens, HCT-2998",31.7 nM
same,Growth % (10^−5 M),"[11]; HCT-15, 10 μM",0.71%
same,GI50,"[11]; Homo sapiens, HCT-15",24.5 nM
same,inhibition at 10 µM,"[11]; Homo sapiens, HCT-15, one-dose, 10 μM, read-out: growth inhibition",99%
same,GI50,"[12]; Homo sapiens, KM12",< 10 nM
same,Growth % (10^−5 M),"[12]; KM12, 10 μM",−37 ^e %
same,GI50,"[13]; Homo sapiens, SF-268",25.3 nM
same,Growth % (10^−5 M),"[13]; SF-268, 10 μM",18.51%
same,GI50,"[14]; Homo sapiens, SF-539, SF539",21.3 nM
same,Growth % (10^−5 M),"[14]; SF539, 10 μM",−7.31 ^e %
same,GI50,"[15]; Homo sapiens, SNB-19",36.5 nM
same,Growth % (10^−5 M),"[15]; SNB-19, 10 μM",28.03%
same,GI50,"[16]; Homo sapiens, SNB-75",16.6 nM
same,Growth % (10^−5 M),"[16]; SNB-75, 10 μM",39.46%
same,GI50,"[17]; Homo sapiens, U-251, U251",31.6 nM
same,inhibition at 10 µM,"[17]; Homo sapiens, U-251, U251, one-dose, 10 μM, read-out: growth inhibition",90%
same,Growth % (10^−5 M),"[17]; U251, 10 μM",10.13%
same,GI50,"[18]; Homo sapiens, PC-3",12 nM
same,Growth % (10^−5 M),"[18]; PC-3, 10 μM",19.1%
same,Growth % (10^−5 M),"[19]; DU-145, 10 μM",−36.33 ^e %
same,GI50,"[19]; Homo sapiens, DU-145",12.5 nM
same,GI50,"[20]; Homo sapiens, LOX IMV1",35.8 nM
same,Growth % (10^−5 M),"[20]; LOX IMV1, 10 μM",28.97%
same,GI50,"[21]; Homo sapiens, M14",12.9 nM
same,inhibition at 10 µM,"[21]; Homo sapiens, M14, one-dose, 10 μM, read-out: growth inhibition",99%
same,Growth % (10^−5 M),"[21]; M14, 10 μM",1.39%
same,GI50,"[22]; Homo sapiens, MDA-MB-435",< 10 nM
same,Growth % (10^−5 M),"[22]; MDA-MB-435, 10 μM",−16.61 ^e %
same,GI50,"[23]; Homo sapiens, SK-MEL-2",> 10000 nM
same,Growth % (10^−5 M),"[23]; SK-MEL-2, 10 μM",37.97%
same,GI50,"[24]; Homo sapiens, SK-MEL-28",< 10 nM
same,Growth % (10^−5 M),"[24]; SK-MEL-28, 10 μM",89.31%
same,GI50,"[25]; Homo sapiens, SK-MEL-5",20.1 nM
same,Growth % (10^−5 M),"[25]; SK-MEL-5, 10 μM",−34.34 ^e %
same,GI50,"[26]; Homo sapiens, UACC-62",18.1 nM
same,Growth % (10^−5 M),"[26]; UACC-62, 10 μM",25.13%
same,GI50,"[27]; Homo sapiens, OVCAR-4",62.8 nM
same,Growth % (10^−5 M),"[27]; OVCAR-4, 10 μM",30.96%
same,GI50,"[28]; Homo sapiens, OVCAR-8",49 nM
same,Growth % (10^−5 M),"[28]; OVCAR-8, 10 μM",12.79%
same,Growth % (10^−5 M),[29]; 10 μM,−41.32 ^e %
same,GI50,[29]; Homo sapiens,11.1 nM
same,Growth % (10^−5 M),[30]; 10 μM,22.73%
same,GI50,[30]; Homo sapiens,45.5 nM
same,Growth % (10^−5 M),"[31]; CAKI-1, 10 μM",23.4%
same,GI50,"[31]; Homo sapiens, CAKI-1",30.7 nM
same,GI50,"[32]; Homo sapiens, RXF 393",39.8 nM
same,Growth % (10^−5 M),"[32]; RXF 393, 10 μM",12.08%
same,GI50,"[33]; Homo sapiens, UO-31",88.4 nM
same,Growth % (10^−5 M),"[33]; UO-31, 10 μM",31.52%
same,Growth % (10^−5 M),"[34]; BT-549, 10 μM",7.07%
same,GI50,"[34]; Homo sapiens, BT-549",43.8 nM
same,inhibition at 10 µM,"[34]; Homo sapiens, BT-549, one-dose, 10 μM, read-out: growth inhibition",94%
same,Growth % (10^−5 M),[35]; 10 μM,59.73%
same,GI50,"[35]; Homo sapiens, T47D",> 10000 nM
same,cytotoxicity (LDH assay),[36],13.2%
same,GI50,[37]; MCF7,34.5 nM
same,IC50,"[37]; MCF7, read-out: GI50 (IC50)",36 nM
same,inhibition at 10 µM,"[37]; MCF7, read-out: growth inhibition",90%
same,CC50,[38],> 100000 nM
